≈ marks a conversion by molar mass, not a printed value. Calls of active or inactive are those of the source. The rule behind the calls is not given here.
Assays:
Micrococcus luteus = experiment: Antibacterial activity against Micrococcus luteus MTCC 2470 after 24 hrs by well diffusion method; format: functional; conditions: MTCC 2470, 24 h
HepG2 [1] = experiment: Cytotoxicity against human HepG2 cells after 24 hrs by MTT assay; format: functional, cell-based; conditions: HepG2, 24 h
HeLa [2] = experiment: Cytotoxicity against human HeLa cells after 24 hrs by MTT assay; format: functional, cell-based
Staphylococcus aureus [3] = experiment: Antibacterial activity against Staphylococcus aureus MLS16 MTCC 2940 after 24 hrs by well diffusion method; format: functional; conditions: MLS16 MTCC 2940, 24 h
Bacillus subtilis = experiment: Antibacterial activity against Bacillus subtilis MTCC 121 after 24 hrs by well diffusion method; format: functional; conditions: MTCC 121, 24 h
COLO 205 [4] = experiment: Cytotoxicity against human COLO205 cells after 24 hrs by MTT assay; format: functional, cell-based; conditions: COLO 205, 24 h
Pseudomonas aeruginosa = experiment: Antibacterial activity against Pseudomonas aeruginosa MTCC 2453 after 24 hrs by well diffusion method; format: functional; conditions: MTCC 2453, 24 h
A549 [5] = experiment: Cytotoxicity against human A549 cells after 24 hrs by MTT assay; format: functional, cell-based; conditions: A549, 24 h
Escherichia coli = experiment: Antibacterial activity against Escherichia coli MTCC 739 after 24 hrs by well diffusion method; format: functional; conditions: MTCC 739, 24 h
Raoultella planticola = experiment: Antibacterial activity against Klebsiella planticola MTCC 530 after 24 hrs by well diffusion method; format: functional; conditions: MTCC 530, 24 h
Staphylococcus aureus [6] = experiment: Antibacterial activity against Staphylococcus aureus MTCC 96 after 24 hrs by well diffusion method; format: functional; conditions: MTCC 96, 24 h
HeLa [7] = experiment: Cytotoxicity against human HeLa cells at >100 uM after 24 hrs by MTT assay; format: functional, cell-based
COLO 205 [8] = experiment: Cytotoxicity against human COLO205 cells at >100 uM after 24 hrs by MTT assay; format: functional, cell-based
A549 [9] = experiment: Cytotoxicity against human A549 cells at >100 uM after 24 hrs by MTT assay; format: functional, cell-based
HepG2 [10] = experiment: Cytotoxicity against human HepG2 cells at >100 uM after 24 hrs by MTT assay; format: functional, cell-based

SMILES | MIC (Micrococcus luteus) [µg/mL] | IC50 (HepG2 [1]) [µM] | IC50 (HeLa [2]) [µM] | MIC (Staphylococcus aureus [3]) [µg/mL] | MIC (Bacillus subtilis) [µg/mL] | IC50 (COLO 205 [4]) [µM] | MIC (Pseudomonas aeruginosa) [µg/mL] | IC50 (A549 [5]) [µM] | MIC (Escherichia coli) [µg/mL] | MIC (Raoultella planticola) [µg/mL] | MIC (Staphylococcus aureus [6]) [µg/mL] | Activity (HeLa [7]) | Activity (COLO 205 [8]) | Activity (A549 [9]) | Activity (HepG2 [10])
O=C(Cn1nc(C(F)(F)F)c2c(-c3ccccc3)c3ccccc3nc21)Nc1ccc([N+](=O)[O-])cc1 | 7.8 to 125 (≈ 15.9 to 254 µM) | 12.2 | 15.1 | 7.8 to 125 (≈ 15.9 to 254 µM) | 7.8 to 125 (≈ 15.9 to 254 µM) | 14.3 | 7.8 to 125 (≈ 15.9 to 254 µM) | 10.8 | 7.8 to 125 (≈ 15.9 to 254 µM) | 7.8 to 125 (≈ 15.9 to 254 µM) | 7.8 to 125 (≈ 15.9 to 254 µM) | – | – | – | –
O=C(Cn1nc(C(F)(F)F)c2c(-c3ccccc3)c3ccccc3nc21)N1CCCC1 | 7.8 to 125 (≈ 18.4 to 295 µM) | 33.3 | 29.6 | 7.8 to 125 (≈ 18.4 to 295 µM) | 7.8 to 125 (≈ 18.4 to 295 µM) | 25.8 | 7.8 to 125 (≈ 18.4 to 295 µM) | 22.5 | 7.8 to 125 (≈ 18.4 to 295 µM) | 7.8 to 125 (≈ 18.4 to 295 µM) | 7.8 to 125 (≈ 18.4 to 295 µM) | – | – | – | –
O=c1[nH]cc(F)c(=O)[nH]1 [FLUOROURACIL] | – | 1.4 | 1.4 | – | – | 1.9 | – | 1.2 | – | – | – | – | – | – | –
Cc1c2ccccc2nc2c1c(C(F)(F)F)nn2CC(=O)NC1CCCCC1 | 7.8 to 125 (≈ 20 to 320 µM) | 29.6 | 23.4 | 7.8 to 125 (≈ 20 to 320 µM) | 7.8 to 125 (≈ 20 to 320 µM) | 24.5 | 7.8 to 125 (≈ 20 to 320 µM) | 28.2 | 7.8 to 125 (≈ 20 to 320 µM) | 7.8 to 125 (≈ 20 to 320 µM) | 7.8 to 125 (≈ 20 to 320 µM) | – | – | – | –
Cc1c2ccccc2nc2c1c(C(F)(F)F)nn2CC(=O)NCc1ccco1 | 7.8 to 125 (≈ 20.1 to 322 µM) | 48.2 | 32.8 | 7.8 to 125 (≈ 20.1 to 322 µM) | 7.8 to 125 (≈ 20.1 to 322 µM) | 29.8 | 7.8 to 125 (≈ 20.1 to 322 µM) | 33.9 | 7.8 to 125 (≈ 20.1 to 322 µM) | 7.8 to 125 (≈ 20.1 to 322 µM) | 7.8 to 125 (≈ 20.1 to 322 µM) | – | – | – | –
O=C(Cn1nc(C(F)(F)F)c2c(-c3ccccc3)c3ccccc3nc21)NC1CCCCC1 | 7.8 to 125 (≈ 17.2 to 276 µM) | 30.2 | 29.7 | 7.8 to 125 (≈ 17.2 to 276 µM) | 7.8 to 125 (≈ 17.2 to 276 µM) | 32.1 | 7.8 to 125 (≈ 17.2 to 276 µM) | 25.9 | 7.8 to 125 (≈ 17.2 to 276 µM) | 7.8 to 125 (≈ 17.2 to 276 µM) | 7.8 to 125 (≈ 17.2 to 276 µM) | – | – | – | –
Cc1c2ccccc2nc2c1c(C(F)(F)F)nn2CC(=O)N1CCOCC1 | 7.8 to 125 (≈ 20.6 to 330 µM) | – | – | 7.8 to 125 (≈ 20.6 to 330 µM) | 7.8 to 125 (≈ 20.6 to 330 µM) | – | 7.8 to 125 (≈ 20.6 to 330 µM) | – | 7.8 to 125 (≈ 20.6 to 330 µM) | 7.8 to 125 (≈ 20.6 to 330 µM) | 7.8 to 125 (≈ 20.6 to 330 µM) | inactive | inactive | inactive | inactive
Cc1nn(CC(=O)NC2CCCCC2)c2nc3ccccc3c(C)c12 | 7.8 to 125 (≈ 23.2 to 372 µM) | 10.8 | 14.2 | 7.8 to 125 (≈ 23.2 to 372 µM) | 7.8 to 125 (≈ 23.2 to 372 µM) | 20.1 | 7.8 to 125 (≈ 23.2 to 372 µM) | 12.6 | 7.8 to 125 (≈ 23.2 to 372 µM) | 7.8 to 125 (≈ 23.2 to 372 µM) | 7.8 to 125 (≈ 23.2 to 372 µM) | – | – | – | –
COc1ccc(NC(=O)Cn2nc(C(F)(F)F)c3c(C)c4ccccc4nc32)cc1 | 7.8 to 125 (≈ 18.8 to 302 µM) | – | – | 7.8 to 125 (≈ 18.8 to 302 µM) | 7.8 to 125 (≈ 18.8 to 302 µM) | – | 7.8 to 125 (≈ 18.8 to 302 µM) | – | 7.8 to 125 (≈ 18.8 to 302 µM) | 7.8 to 125 (≈ 18.8 to 302 µM) | 7.8 to 125 (≈ 18.8 to 302 µM) | inactive | inactive | inactive | inactive
Cc1nn(CC(=O)NCc2ccco2)c2nc3ccccc3c(C)c12 | 7.8 to 125 (≈ 23.3 to 374 µM) | 13.2 | 14.4 | 7.8 to 125 (≈ 23.3 to 374 µM) | 7.8 to 125 (≈ 23.3 to 374 µM) | 15.6 | 7.8 to 125 (≈ 23.3 to 374 µM) | 14.9 | 7.8 to 125 (≈ 23.3 to 374 µM) | 7.8 to 125 (≈ 23.3 to 374 µM) | 7.8 to 125 (≈ 23.3 to 374 µM) | – | – | – | –
Cc1c2ccccc2nc2c1c(C(F)(F)F)nn2CC(=O)NC1CC1 | 7.8 to 125 (≈ 22.4 to 359 µM) | 18.6 | 21 | 7.8 to 125 (≈ 22.4 to 359 µM) | 7.8 to 125 (≈ 22.4 to 359 µM) | 22.7 | 7.8 to 125 (≈ 22.4 to 359 µM) | 19.2 | 7.8 to 125 (≈ 22.4 to 359 µM) | 7.8 to 125 (≈ 22.4 to 359 µM) | 7.8 to 125 (≈ 22.4 to 359 µM) | – | – | – | –
O=C(Cn1nc(C(F)(F)F)c2c(-c3ccccc3)c3ccccc3nc21)N1CCCCC1 | 7.8 to 125 (≈ 17.8 to 285 µM) | 30.2 | 29.2 | 7.8 to 125 (≈ 17.8 to 285 µM) | 7.8 to 125 (≈ 17.8 to 285 µM) | 19.3 | 7.8 to 125 (≈ 17.8 to 285 µM) | 25.6 | 7.8 to 125 (≈ 17.8 to 285 µM) | 7.8 to 125 (≈ 17.8 to 285 µM) | 7.8 to 125 (≈ 17.8 to 285 µM) | – | – | – | –
CCNC(=O)Cn1nc(C(F)(F)F)c2c(C)c3ccccc3nc21 | 7.8 to 125 (≈ 23.2 to 372 µM) | 20.8 | 19.2 | 7.8 to 125 (≈ 23.2 to 372 µM) | 7.8 to 125 (≈ 23.2 to 372 µM) | 16.4 | 7.8 to 125 (≈ 23.2 to 372 µM) | 22.8 | 7.8 to 125 (≈ 23.2 to 372 µM) | 7.8 to 125 (≈ 23.2 to 372 µM) | 7.8 to 125 (≈ 23.2 to 372 µM) | – | – | – | –

Reference: ChEMBL document CHEMBL4014279, “Synthesis of novel pyrazolo[3,4-b]quinolinyl acetamide analogs, their evaluation for antimicrobial and anticancer activities, validation by molecular modeling and CoMFA analysis” (Eur J Med Chem, 2017)
